target: T1, recombinant human mPGES-1 (Homo sapiens, UniProt O14684); assay: Assay A: mPGES-1 enzyme assay (HTRF detection of PGE2); assay type: biochemical; conditions: biological assay A; microsomes from E. coli expressing recombinant human mPGES-1; read-out: mPGES-1 inhibitory effect IC50
T1 construct: made in house; host or cells: Rosetta E. coli (membrane/microsome fraction)
T1 sequence (O14684 1-152): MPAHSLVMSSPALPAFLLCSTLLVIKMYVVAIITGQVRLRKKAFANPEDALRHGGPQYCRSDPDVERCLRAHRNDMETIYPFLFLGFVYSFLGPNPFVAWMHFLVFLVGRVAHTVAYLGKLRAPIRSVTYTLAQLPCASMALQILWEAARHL
Text: The aim of this assay is to determine the affinity of a test compound for the mPGES-1 enzyme.
• 1. Riendeau, D., R. Aspiotis, D. Ethier, Y. Gareau, E. Grimm, J. Guay, S. Guiral, H. Juteau, J. Mancini, N. Methot, J. Rubin, and R. Friesen, Inhibitors of the inducible microsomal prostaglandin E2 synthase (mPGES-1) derived from MK-886. Bioorg Med Chem Lett, 2005. 15(14): p. 3352-3355. • 2. Cote, B., L. Boulet, C. Brideau, D. Claveau, D. Ethier, R. Frenette, M. Gagnon, A. Giroux, J. Guay, S. Guiral, J. Mancini, E. Martins, F. Masse, N. Methot, D. Riendeau, J. Rubin, D. Xu, H. Yu, Y. Ducharme, and R. Friesen, Substituted phenanthrene imidazoles as potent, selective, and orally active mPGES-1 inhibitors. Bioorg Med Chem Lett, 2007. 17(24): p. 6816-6820. Assay A: mPGES-1 Enzyme Assay List of Reagents Used: • Glutathione (Sigma, G-4251) • Freeze culture in Rosetta E coli expression strain. • LB growth media with Ampillicillin (Amp) final concentration in culture 50 μg/mL • Chloroamphenicol stock 34 mg/mL (chloro) final concentration in culture 34 μg/mL • Sterile growth flasks for 500 mL-1 liter cultures • 0.1 M KP, buffer pH 7.4 • 9.25% HCl • PGH2 (0.25 mM) • Fe (II) Cl2 tetrahydrate, 99% (Sigma, 220229) • 384-well plate with compounds • 96-well plate, polypropylene (Thermo fast 96 skirted VWR) • 384-well plate polypropylene PCR plate (Greiner 785201) • Greiner 384-well plate pp (In vitro cat. no. 781280) • Adhesive sealing film for 96-well plates (Sigma-Aldrich) • Aluminium foil (PCR foil, 310-0030-127-471 from Labora) • PBS (GIBCO 14040) • Prostaglandin E2 Assay (Cisbio, cat. no. 62P2APEC) • Biomek FX robot (Beckman Coulter) • Biomek NX robot (Beckman Coulter) • Multidrop; micro or combi (ThermoLabsystems) • Plate reader: Safire2 (Tecan)
Microsomes from Rosetta E. coli bacteria expressing recombinant human mPGES-1 can be derived as described below:
Inoculate 5 mL LB with Amp and Chloro with bacteria from freeze culture. Incubate overnight at 37° C. with 200 rpm. Thereafter, inoculate 500-800 mL LB containing Amp and Chloro with the 5 mL on culture and grow to OD640 of 0.6-0.8. Chill the culture to +4° C. before induction. Induce the culture with IPTG at a final concentration of 400 μM. Express the protein at room temp 18-23° C. with 200 rpm shaking overnight.
The following steps can be performed on the following day: • 1. Spin down the cells in 250 mL centrifuge flasks for 15 min at 7000 rpm • 2. Dissolve the pellet from 250 mL culture in 12.5 mL homogenization buffer • 3. Disintegrate the cells by sonication, 4×10 seconds at 35% amplitude • 4. Add 2.5 mL MgCl2 (100 mM) and DNase 12.5 μL (0.8 mg/mL) and incubate on ice for 30 min • 5. Spin down the bacteria debris and save the supernatant, 7000 rpm for 15 min • 6. Isolate the protein containing membranes in the supernatant by ultracentrifugation 45000×g for 1 hour. • 7. Discard the supernatant and dissolve the pellet in 20 mM KPi buffer and aliquot the enzyme and store aliquots at −80° C.
Before each experiment is performed an aliquot of the enzyme is thawed and it can then be dissolved in 0.1 M KP, pH 7.4 buffer containing 2.5 mM GSH. 50 μL of this enzyme solution is subsequently dispensed in a 384-well plate at room temperature. 0.5 μL of the inhibitor dissolved in DMSO is thereafter added to each well and incubated for 25 minutes at room temperature. Subsequently, 2 μL of PGH2 dissolved in an appropriate solvent is added to each well and after one minute at room temperature, the acidified stop solution containing FeCl2 is added. 4 μL of the total volume is transferred to a separate plate and diluted 750-fold in two separate steps before quantification of PGE2.
In order to quantitate the amount of PGE2 that has been formed, a homogenous time resolved fluorescent (HTRF) detection of PGE2 can be performed by the use of a commercially available kit from CisBio essentially according to the manufacturer's protocol. […]

| Compound | IC50 [nM] |
| --- | --- |
| CC(C)(C)C(=O)NCc1ccc(Cl)c(Nc2nc3cc(Cl)c(N4CCC5(CC5)C4)cc3[nH]2)c1 [Example 4, N-{3-[6-(5-Aza-spiro[2.4]hept-5-yl)-5-chloro-1H-benzimidazol-2-ylamino]-4-chloro-benzyl}-2,2-dimethyl-propionamide] | 24 |
| Cn1c(Nc2cc(CNC(=O)C(C)(F)F)ccc2Cl)nc2cc(Cl)c(N3CCN(c4ccc(C(F)(F)F)cc4)CC3)cc21 [Example 96] | 4.1 |
| CN(C)C(=O)C1CCCN1c1cc2[nH]c(Nc3cc(CNC(=O)C(C)(C)C)ccc3Cl)nc2cc1Cl (stereo not drawn) [Example 6, N-{4-Chloro-3-[5-chloro-6-(2-dimethylcarbamoyl-pyrrolidin-1-yl)-1H-benzimidazol-2-ylamino]-benzyl}-2,2-dimethyl-propionamide] | 215 |
| CN(C)CC1CCN(c2cc3[nH]c(Nc4cc(CNC(=O)C(C)(C)C)ccc4Cl)nc3cc2Cl)C1 (stereo not drawn) [Example 3, N-{4-Chloro-3-[5-chloro-6-(3-dimethylaminomethyl-pyrrolidin-1-yl)-1H-benzimidazol-2-ylamino]-benzyl}-2,2-dimethyl-propionamide] | 715 |
| Cn1c(Nc2cc(CNC(=O)C3(C(F)(F)F)CC3)ccc2Cl)nc2cc(F)c(N3CCC(C(F)(F)F)CC3)cc21 [Example 86, N-{4-Chloro-3-[5-fluoro-1-methyl-6-(4-trifluoromethyl-piperidin-1-yl)-1H-benzimidazol-2-ylamino]-benzyl}-1-trifluoromethyl-cyclopropanamide] | 7.1 |
| CCCC(C)(C)C(=O)NCc1ccc(Cl)c(Nc2nc3cc(N4CCCC4)ccc3[nH]2)c1 [Example 18] | 79 |
| O=C(NCc1ccc(Cl)c(Nc2nc3cc(N4CCCC4)ccc3[nH]2)c1)c1ccc(OCc2ccccc2)cc1 [Example 21] | 30 |
| CC1(C(=O)NCc2ccc(Cl)c(Nc3nc4cc(N5CCCC5)ccc4[nH]3)c2)CCCC1 [Example 28] | 24 |
| Cn1c(Nc2cc(CNC(=O)c3c(Cl)cccc3Cl)ccc2Cl)nc2cc(Cl)c(N3CCCC(C(F)(F)F)C3)cc21 (stereo not drawn) [Example 68] | 4 |
| Cn1c(Nc2cc(CNC(=O)C3(C(F)(F)F)CC3)ccc2Cl)nc2cc(Cl)c(N3CCC(C(F)(F)F)CC3)cc21 [Example 71, N-{4-Chloro-3-[5-chloro-1-methyl-6-(4-trifluoromethyl-piperidin-1-yl)-1H-benzimidazol-2-ylamino]benzyl}-1-trifluoromethyl-cyclopropaneamide] | 2.5 |
| Cn1c(Nc2cc(CNC(=O)c3c(Cl)cncc3Cl)ccc2Cl)nc2cc(Cl)c(N3CCCC(C(F)(F)F)C3)cc21 (stereo not drawn) [Example 54] | 6.6 |
| Cn1c(Nc2cc(CNC(=O)C3(C(F)(F)F)CC3)ccc2Cl)nc2cc(F)c(N3CCC(C)(C)CC3)c(F)c21 [Example 85] | 20 |
| Cn1c(Nc2cc(CNC(=O)C3(C(F)(F)F)CC3)ccc2Cl)nc2cc(Cl)c(N3CCN(c4ccccc4)CC3)cc21 [Example 90] | 2.2 |
| CC(C)(C)C(=O)NCc1ccc(Cl)c(Nc2nc3cc(Cl)c(N4CCC(C#N)C4)cc3[nH]2)c1 (stereo not drawn) [Example 8, N-{4-Chloro-3-[5-chloro-6-(3-cyano-pyrrolidin-1-yl)-1H-benzimidazol-2-ylamino]-benzyl}-2,2-dimethyl-propionamide] | 106 |
| O=S(=O)(NCc1ccc(Cl)c(Nc2nc3cc(N4CCCC4)ccc3[nH]2)c1)c1ccco1 [Example 29] | 105 |
| CC(C)(C)C(=O)NCc1ccc(Cl)c(Nc2nc3cc(N4CCC(F)(F)C4)c(Cl)cc3[nH]2)c1 [Example 2, N-{4-Chloro-3-[6-chloro-5-(3,3-difluoropyrrolidin-1-yl)-1H-benzo[d]imidazol-2-ylamino]benzyl}-2,2-dimethyl-propionamide] | 19 |
| Cn1c(Nc2cc(CNC(=O)C(N)C(F)(F)F)ccc2Cl)nc2cc(Cl)c(N3CCCC(C(F)(F)F)C3)cc21 (stereo not drawn) [Example 65] | 15 |
| Cn1c(Nc2cc(CNC(=O)C3(C(F)(F)F)CC3)ccc2Cl)nc2cc(C#N)c(N3CCC(C(F)(F)F)CC3)cc21 [Example 82, N-{4-Chloro-3-[5-cyano-1-methyl-6-(4-trifluoromethyl-piperidin-1-yl)-1H-benzimidazol-2-ylamino]-benzyl}-1-trifluoromethyl-cyclopropanamide] | 1.7 |

Next, values leading:

| IC50 [nM] | Compound |
| --- | --- |
| 11 | Cn1c(Nc2cc(CNC(=O)C3(C(F)(F)F)CC3)ccc2F)nc2cc(C#N)c(N3CCC(C(F)(F)F)CC3)cc21 [Example 113] |
| 124 | Cn1c(Nc2cc(CNC(=O)C3(C(F)(F)F)CC3)ccc2Cl)nc2ccc(N3CCCC3)cc21 [Example 132] |
| 2.4 | Cn1c(Nc2cc(CNC(=O)C(C)(C)C)ccc2C(F)(F)F)nc2cc(Cl)c(N3CCC(C(F)(F)F)CC3)cc21 [Example 104] |
| 60 | CC1(C(=O)NCc2ccc(Cl)c(Nc3nc4cc(Cl)c(N5CCOCC5)cc4[nH]3)c2)CCCCC1 [Example 121] |
| 5.8 | Cn1c(Nc2cc(CNC(=O)C(C)(N)C(F)(F)F)ccc2C(F)(F)F)nc2cc(Cl)c(N3CCC(C(F)(F)F)CC3)cc21 (stereo not drawn) [Example 108] |
| 2.8 | Cn1c(Nc2cc(CNC(=O)C3(C(F)(F)F)CC3)ccc2C(F)(F)F)nc2cc(Cl)c(N3CCC(C(F)(F)F)CC3)cc21 [Example 101, N-{4-Trifluoromethyl-3-[5-chloro-1-methyl-6-(4-trifluoromethyl-piperidin-1-yl)-1H-benzimidazol-2-ylamino]-benzyl}-1-trifluoromethyl-cyclopropanamide] |
| 4.8 | Cn1c(Nc2cc(CNC(=O)C3(C(F)(F)F)CC3)c(F)cc2Cl)nc2cc(Cl)c(N3CCC(C(F)(F)F)CC3)cc21 [Example 114, N-{4-Chloro-2-fluoro-5-[5-chloro-1-methyl-6-(4-trifluoromethyl-piperidin-1-yl)-1H-benzimidazol-2-ylamino]-benzyl}-1-trifluoromethyl-cyclopropanamide] |
| 5.2 | Cn1c(Nc2cc(CN[S+]([O-])C(C)(C)C)ccc2C(F)(F)F)nc2cc(Cl)c(N3CCC(C(F)(F)F)CC3)cc21 (stereo not drawn) [Example 109, N-(4-Trifluoromethyl-3-(5-chloro-1-methyl-6-(4-trifluoromethyl-piperidin-1-yl)-1H-benzo[d]imidazol-2-ylamino)benzyl)-2-methylpropane-2-sulfinamide] |
| 2.6 | Cn1c(Nc2cc(CNC(=O)C3(C(F)(F)F)CC3)ccc2Cl)nc2cc(Cl)c(N3CCCC(C(F)(F)F)C3)cc21 (stereo not drawn) [Example 124] |
| 1.5 | Cn1c(Nc2cc(CNS(=O)(=O)C(C)(C)C)ccc2C(F)(F)F)nc2cc(Cl)c(N3CCC(C(F)(F)F)CC3)cc21 [Example 110, N-(4-Trifluoromethyl-3-(5-chloro-1-methyl-6-(4-trifluoromethyl-piperidin-1-yl)-1H-benzo[d]imidazol-2-ylamino)benzyl)-2-methylpropane-2-sulfonamide] |
| 266 | CN1CCN(c2cc3[nH]c(Nc4cc(CNC(=O)C5(C)CCCCC5)ccc4Cl)nc3cc2Cl)CC1 [Example 120] |
| 13 | Cn1c(Nc2cc(CNC(=O)C3(O)CC3)ccc2C(F)(F)F)nc2cc(Cl)c(N3CCC(C(F)(F)F)CC3)cc21 [Example 107] |

— patent publication US8466186B2, “Compounds” (Boehringer Ingelheim International GmbH, priority 2010, dated 2013)
